This test can be described thus: Artificial […]-like chaperone activity assessed as prevention of citrate synthase thermal aggregation. It counts as functional.

Each structure is given as a SMILES string. Activity calls are given as the source filed them. No cut-off for these calls is given here.

Regarding `OC[C@H]1O[C@@H]2O[C@H]3[C@H](O)[C@@H](O)[C@@H](O[C@H]4[C@H](O)[C@@H](O)[C@@H](O[C@H]5[C@H](O)[C@@H](O)[C@@H](O[C@H]6[C@H](O)[C@@H](O)[C@@H](O[C@H]7[C@H](O)[C@@H](O)[C@@H](O[C@H]8[C@H](O)[C@@H](O)[C@@H](O[C@H]1[C@H](O)[C@H]2O)O[C@@H]8CO)O[C@@H]7CO)O[C@@H]6CO)O[C@@H]5CO)O[C@@H]4CO)O[C@@H]3CO`, the outcome was Active.
On to `OC[C@H]1O[C@@H]2O[C@H]3[C@H](O)[C@@H](O)[C@@H](O[C@H]4[C@H](O)[C@@H](O)[C@@H](O[C@H]5[C@H](O)[C@@H](O)[C@@H](O[C@H]6[C@H](O)[C@@H](O)[C@@H](O[C@H]7[C@H](O)[C@@H](O)[C@@H](O[C@H]1[C@H](O)[C@H]2O)O[C@@H]7CO)O[C@@H]6CO)O[C@@H]5CO)O[C@@H]4CO)O[C@@H]3CO`, for which the outcome was inactive.

The values above are taken from ChEMBL document CHEMBL1146371, “HSP90-like artificial chaperone activity based on indole beta-cyclodextrin” (Bioorg Med Chem, 2007).
